Values quoted from earlier work as cited in patent US11576952B2, “Injectable solution at pH 7 comprising at least one basal insulin for which the pI is from 5.8 to 8.5 and a co-polyamino acid bearing carboxylate charges and hydrophobic radicals” (ADOCIA, priority 2017, dated 2023).

Details: background description

insulin glargine
Period over which the blood sugar lowering effect is quasi-constant: 24 h
